# Source: patent US20250235562A1, “USE OF SECOND NEAR-INFRARED ORGANIC FLUORESCENT COMPOUND IN PREPARATION OF BIOIMAGING CONTRAST AGENT AND IN VASCULAR FLUORESCENCE IMAGING” (INNER MONGOLIA UNIVERSITY, priority 2024, published 2025)
# Test: Photostability test under continuous white light irradiation
# Assay type: physicochemical
# Conditions: 50 mW·cm^−2 white light, continuous irradiation 40 min
# Method: (3) Photostability test of the nanoimaging agent Y6CT-NPs: commercial imaging agent indocyanine green (ICG) was selected as a reference. Y6CT-NPs and ICG were irradiated continuously by 50 mW·cm^−2 white light (laparoscopic LED cold light source) for 40 min, and the fluorescence intensity of the two were recorded at different time points, a ratio of which to the initial fluorescence intensity was calculated to compare the attenuation degree of fluorescence intensity and photostability between the two.
smiles,measurement,value
"CC1(C)C(/C=C/C=C/C=C/C=C2\N(CCCCS(=O)(=O)O)c3ccc4ccccc4c3C2(C)C)=[N+](CCCCS(=O)(=O)[O-])c2ccc3ccccc3c21 [ICG, indocyanine green]",change of fluorescence intensity after continuous irradiation,decreases significantly
same,fluorescence intensity at 40 min relative to the initial fluorescence intensity,30%
